# Laboratory results: PubChem BioAssay (NCI)
#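 Growth conditions: 96-well plates. Treatment: test compound, 48 hours, 5 concentrations. Analysis: linear interpolation between bracketing concentrations; unreached endpoints set to highest concentration. TGI: concentration producing complete growth inhibition.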
# How the values were obtained:
# Experiment in all cases: DTP human tumour cell line panel, 48 h
# [1] = test system: 786-0 renal
# [2] = test system: A549 NSCLC
# [3] = test system: ACHN renal
# [4] = test system: BT-549 breast
# [5] = test system: CCRF-CEM leukemia
# [6] = test system: DU-145 prostate
# [7] = test system: EKVX NSCLC
# [8] = test system: HCC-2998 colon
# [9] = test system: HCT-116 colon
# [10] = test system: HCT-15 colon
# [11] = test system: HL-60(TB) leukemia
# [12] = test system: HOP-62 NSCLC
# [13] = test system: HOP-92 NSCLC
# [14] = test system: HS 578T breast
# [15] = test system: HT29 colon
# [16] = test system: IGROV1 ovarian
# [17] = test system: K-562 leukemia
# [18] = test system: KM12 colon
# [19] = test system: M14 melanoma
# [20] = test system: MALME-3M melanoma
# [21] = test system: MCF7 breast
# [22] = test system: MDA-MB-435
# [23] = test system: MDA-N
# [24] = test system: MOLT-4 leukemia
# [25] = test system: NCI-H226 lung
# [26] = test system: NCI-H23 lung
# [27] = test system: NCI-H460 lung
# [28] = test system: NCI/ADR-RES ovarian
# [29] = test system: OVCAR-3 ovarian
# [30] = test system: OVCAR-5 ovarian
# [31] = test system: OVCAR-8 ovarian
# [32] = test system: PC-3 prostate
# [33] = test system: RPMI-8226 leukemia
# [34] = test system: SF-268 CNS
# [35] = test system: SF-295 CNS
# [36] = test system: SF-539 CNS
# [37] = test system: SK-MEL-5 melanoma
# [38] = test system: SK-OV-3 ovarian
# [39] = test system: SN12C renal
# [40] = test system: SNB-19 CNS
# [41] = test system: SNB-75 CNS
# [42] = test system: SR leukemia
# [43] = test system: SW-620 colon
# [44] = test system: T-47D breast
# [45] = test system: U251 CNS
# [46] = test system: UACC-257 melanoma
# [47] = test system: UACC-62 melanoma
# [48] = test system: UO-31 renal
# [49] = test system: A498 renal
# [50] = test system: CAKI-1 renal
# [51] = test system: COLO 205 colon
# [52] = test system: MDA-MB-231 breast
# [53] = test system: NCI-H522 lung
# [54] = test system: OVCAR-4 ovarian
# [55] = test system: RXF 393 renal
# [56] = test system: SK-MEL-2 melanoma
# [57] = test system: SK-MEL-28 melanoma
# [58] = test system: TK-10 renal
# [59] = test system: LOX IMVI melanoma
compound,measurement,setting,value
COc1cc(COC(=O)N2CSCC2C(=O)O)c([N+](=O)[O-])cc1OC (centres undefined),TGI,[1],> 100 µM
same,TGI,[2],> 100 µM
same,TGI,[3],> 100 µM
same,TGI,[4],> 100 µM
same,TGI,[5],> 100 µM
same,TGI,[6],> 100 µM
same,TGI,[7],> 100 µM
same,TGI,[8],> 100 µM
same,TGI,[9],> 100 µM
same,TGI,[10],> 100 µM
same,TGI,[11],> 100 µM
same,TGI,[12],> 100 µM
same,TGI,[13],> 100 µM
same,TGI,[14],> 100 µM
same,TGI,[15],> 100 µM
same,TGI,[16],> 100 µM
same,TGI,[17],> 100 µM
same,TGI,[18],> 100 µM
same,TGI,[19],> 100 µM
same,TGI,[20],> 100 µM
same,TGI,[21],> 100 µM
same,TGI,[22],> 100 µM
same,TGI,[23],> 100 µM
same,TGI,[24],> 100 µM
same,TGI,[25],> 100 µM
same,TGI,[26],> 100 µM
same,TGI,[27],> 100 µM
same,TGI,[28],> 100 µM
same,TGI,[29],> 100 µM
same,TGI,[30],> 100 µM
same,TGI,[31],> 100 µM
same,TGI,[32],> 100 µM
same,TGI,[33],> 100 µM
same,TGI,[34],> 100 µM
same,TGI,[35],> 100 µM
same,TGI,[36],> 100 µM
same,TGI,[37],> 100 µM
same,TGI,[38],> 100 µM
same,TGI,[39],> 100 µM
same,TGI,[40],> 100 µM
same,TGI,[41],> 100 µM
same,TGI,[42],> 100 µM
same,TGI,[43],> 100 µM
same,TGI,[44],> 100 µM
same,TGI,[45],> 100 µM
same,TGI,[46],> 100 µM
same,TGI,[47],> 100 µM
same,TGI,[48],> 100 µM
CCN(CC)CCNC(=O)c1cc2cc(NC(=O)c3cc4cc(N)ccc4[nH]3)ccc2[nH]1,TGI,[1],> 100 µM
same,TGI,[49],> 100 µM
same,TGI,[2],> 100 µM
same,TGI,[3],> 100 µM
same,TGI,[4],> 100 µM
same,TGI,[50],> 100 µM
same,TGI,[5],38.9 µM
same,TGI,[51],25.6 µM
same,TGI,[6],47.1 µM
same,TGI,[7],> 100 µM
same,TGI,[8],36.3 µM
same,TGI,[9],79.7 µM
same,TGI,[10],> 100 µM
same,TGI,[12],> 100 µM
same,TGI,[13],> 100 µM
same,TGI,[14],> 100 µM
same,TGI,[15],> 100 µM
same,TGI,[17],> 100 µM
same,TGI,[18],28 µM
same,TGI,[19],77.1 µM
same,TGI,[21],36.8 µM
same,TGI,[52],73.4 µM
same,TGI,[22],58 µM
same,TGI,[23],> 100 µM
same,TGI,[24],48.5 µM
same,TGI,[26],> 100 µM
same,TGI,[27],> 100 µM
same,TGI,[53],46.7 µM
same,TGI,[28],> 100 µM
same,TGI,[54],27.7 µM
same,TGI,[30],> 100 µM
same,TGI,[31],> 100 µM
same,TGI,[33],74.5 µM
same,TGI,[55],61.3 µM
same,TGI,[34],> 100 µM
same,TGI,[35],> 100 µM
same,TGI,[36],85.3 µM
same,TGI,[56],> 100 µM
same,TGI,[57],> 100 µM
same,TGI,[38],> 100 µM
same,TGI,[39],> 100 µM
same,TGI,[40],> 100 µM
same,TGI,[42],55 µM
same,TGI,[43],> 100 µM
same,TGI,[44],> 100 µM
same,TGI,[58],> 100 µM
same,TGI,[45],> 100 µM
same,TGI,[46],> 100 µM
same,TGI,[47],59.3 µM
same,TGI,[48],> 100 µM
C=Cc1c(C)c(O)cc2c1-c1ccc(O)c(C)c1CC2,TGI,[1],34 µM
same,TGI,[49],27.7 µM
same,TGI,[2],55.7 µM
same,TGI,[3],81.1 µM
same,TGI,[4],59.7 µM
same,TGI,[50],46.2 µM
same,TGI,[5],40.6 µM
same,TGI,[51],41.8 µM
same,TGI,[6],28.5 µM
same,TGI,[7],24.3 µM
same,TGI,[8],35.3 µM
same,TGI,[9],28.4 µM
same,TGI,[10],44.5 µM
same,TGI,[11],38.6 µM
same,TGI,[12],83.8 µM
same,TGI,[13],54.5 µM
same,TGI,[14],21.7 µM
same,TGI,[15],53.2 µM
same,TGI,[16],35.6 µM
same,TGI,[18],30 µM
same,TGI,[59],31.8 µM
same,TGI,[19],52.5 µM
same,TGI,[20],45.9 µM
same,TGI,[21],38.9 µM
same,TGI,[52],60.6 µM
same,TGI,[22],28.2 µM
same,TGI,[23],36.6 µM
same,TGI,[24],30.6 µM
same,TGI,[25],43 µM
same,TGI,[26],41.3 µM
same,TGI,[27],45 µM
same,TGI,[53],43.1 µM
same,TGI,[28],71.8 µM
same,TGI,[29],> 100 µM
same,TGI,[54],92 µM
same,TGI,[30],> 100 µM
same,TGI,[31],39.4 µM
same,TGI,[33],56.6 µM
same,TGI,[55],30.2 µM
same,TGI,[34],63.5 µM
same,TGI,[35],32.2 µM
same,TGI,[36],29.3 µM
same,TGI,[56],35.5 µM
same,TGI,[57],31.5 µM
same,TGI,[37],33 µM
same,TGI,[38],36.2 µM
same,TGI,[39],43.1 µM
same,TGI,[40],74.5 µM
same,TGI,[42],17.7 µM
same,TGI,[43],54.6 µM
same,TGI,[44],27.1 µM
same,TGI,[58],41.4 µM
same,TGI,[45],34.3 µM
same,TGI,[46],28 µM
same,TGI,[47],23.1 µM
same,TGI,[48],32.2 µM
